The values that follow come from US20050222209A1, “Methods and compositions for the treatment, prevention or management of dysfunctional sleep and dysfunctional sleep associated with disease” (priority 2004, published 2005).

The subject of one series is subjects. Nature of the series: Pittsburgh Sleep Quality Index study (PSQI, daily sleep diary). The format is in vivo, human. Particulars: 10 mg/day orally, 12 week study, twelve subjects. As for the experimental part: Twelve subjects were treated with 10 mg/day of 3-(4-amino-1-oxo-1,3-dihydro-isoindol-2-yl)-piperidine-2,6-dione orally for 12 weeks. Subjects were seen every 2 weeks until study completion. Subjects were asked to keep a daily sleep diary asking how much interference with sleep (0-10 scale) was experienced. Patients were also asked to complete the Pittsburgh Sleep Quality Inventory (PSQI) at the start of the treatment and ever 4 weeks thereafter, Buysse, DJ et al., Journal of Psychiatric Research, 28 (2), 193-213, 1989.

For series [1] the following is noted: cited from earlier work; for hygroscopicity: crystalline polymorphic form; for interconversion on heating (desolvation experiments): Form E: about 125° C. for about five minutes, Form B: 175° C. for about five minutes; for interconversion of polymorphic form: solvent system or relative humidity as stated.

Regarding `Nc1cccc2c1CN(C1CCC(=O)NC1=O)C2=O` (stereo not shown) [3-(4-amino-1-oxo-1,3-dihydro-isoindol-2-yl)-piperidine-2,6-dione], in the series on subjects, the “need for sleep medications” value was “significantly improved”, the overall sleep quality entry was “significantly improved” and the “presence of daytime sleepiness” value was “significantly improved”.

For the compound `Nc1cccc2c1CN(C1CCC(=O)NC1=O)C2=O` (stereo not shown) [Form A, 3-(4-amino-1-oxo-1,3 dihydro-isoindol-2-yl)-piperidene-2,6-dione], the “relative stability of polymorph” value in series [1] (Form A: among anhydrous polymorphs, Form E: in aqueous solvent systems) was “most thermodynamically stable anhydrous polymorph”. The hygroscopicity entry in series [1] was “weakly or not hygroscopic”.

`Nc1cccc2c1CN(C1CCC(=O)NC1=O)C2=O` (stereo not shown) [Form B, 3-(4-amino-1-oxo-1,3 dihydro-isoindol-2-yl)-piperidene-2,6-dione]: in series [1], the “interconversion on heating (desolvation experiments)” value was “can convert to Form F” and the “interconversion of polymorphic form” value was “converts to Form E in aqueous solvent systems”.

For `Nc1cccc2c1CN(C1CCC(=O)NC1=O)C2=O` (stereo not shown) [Form C, 3-(4-amino-1-oxo-1,3 dihydro-isoindol-2-yl)-piperidene-2,6-dione], in series [1], the hygroscopicity result was “not hygroscopic below about 85% RH” and the “interconversion of polymorphic form” value is listed as “can convert to Form B at higher relative humidities”.

Turning to `Nc1cccc2c1CN(C1CCC(=O)NC1=O)C2=O` (stereo not shown) [Form D, 3-(4-amino-1-oxo-1,3 dihydro-isoindol-2-yl)-piperidene-2,6-dione], in series [1], the hygroscopicity result is listed as “either weakly or not hygroscopic” and the “interconversion of polymorphic form” value is reported as “will typically convert to Form B when stressed at higher relative humidities”.

As to `Nc1cccc2c1CN(C1CCC(=O)NC1=O)C2=O` (stereo not shown) [Form E, 3-(4-amino-1-oxo-1,3 dihydro-isoindol-2-yl)-piperidene-2,6-dione], in series [1], the “interconversion on heating (desolvation experiments)” value is “can convert to Form B”; the “interconversion of polymorphic form” value was “can convert to Form C in an acetone solvent system and to Form G in a THF solvent system”.
